# According to patent US11524950B2, “Treatment of immune-related and inflammatory diseases” (Celgene Corporation, priority 2012, dated 2022):
# Where two headings read alike, the source gives them in different places.
# Columns and labels:
# GM-CSF = experiment: LPS-stimulated hPBMC cytokine production: GM-CSF; type: cell-based; conditions: Homo sapiens
# Procedure: (§1) 50 ml human buffy coat was aliquoted 25 ml each into two 50 ml conical tubes and 25 ml sterile HBSS was added to each conical tube. The tubes were gently mixed by inverting. Fifteen ml of room temperature Ficoll-Paque Plus (GE Healthcare (location); cat #17-1440-02) was aliquoted into four 50 ml conical tubes. Then 25 ml of the Buffy coat/HBSS mixture was layered gently and slowly on top of the Ficoll. The samples were centrifuged at 450 rpm for 35 minutes. The top layered containing plasma was pipetted off and discarded. The interface containing mononuclear cells was transferred into two 50 ml conical tubes. Both conical tubes were filled to total volume of 50 ml with HBSS and centrifuged at 1200 rpm for 10 minutes. The cells were washed again in HBSS and spun at 1000 rpm for 10 minutes. Cell pellet was resuspended with 20 ml RPMI complete medium (RPMI/5% human sera/1× pen/strep/glut) and counted.
# (§2) One hundred μl (2×10^6/ml) of hPBMCs were added to each well of a 96 well flat-bottom plate (final cell count=2×10^5/well) and incubated at 37° C. for 1 hour. […] compound was added to each test well and twenty μl medium containing 2.5% DMSO was added to each control well ([DMSO]final=0.25%) and plate was incubated for 1 hour at 37° C. Cells were then stimulated with […] 2.5 ng/ml LPS ([LPS]final=1 ng/ml) and incubated for 18 hours at 37° C.
# (§3) 50 μl supernatant from each well was transferred into 3 new round-bottomed 96 well plates and stored at −20° C. for Luminex analysis. Duplicate wells were performed for each sample.
# (§4) Supernatant samples were analyzed for cytokines in multiplex format according to the manufacturer's instructions (Millipore, Billerica, Ma 01821) using a Luminex IS100 instrument. IL-12 and GM-CSF analyses were done in a two-plex format using neat supernatants while all other cytokines were done in a multiplex format using supernatants diluted 1:20. Data analysis was performed using Upstate Beadview software. […] The IC50 were performed using GraphPad Prism v5.00. […]
# MIP-1β = experiment: LPS-stimulated hPBMC cytokine production: MIP-1β; type: cell-based; conditions: Homo sapiens; LPS 1 ng/ml, 18 hours
# Procedure: as §1, with “Fifteen ml of room temperature Ficoll-Paque Plus (GE Healthcare (location); cat #17-1440-02) was aliquoted into four 50 ml conical tubes.” left out
# Cells were then stimulated with […] 2.5 ng/ml LPS ([LPS]final=1 ng/ml) and incubated for 18 hours at 37° C.
# as §3
# IL-12 and GM-CSF analyses were done in a two-plex format using neat supernatants while all other cytokines were done in a multiplex format using supernatants diluted 1:20. Data analysis was performed using Upstate Beadview software. […] The IC50 were performed using GraphPad Prism v5.00. The data values represent the mean±SEM (standard error of the mean) of n (number of experiments in duplicate).
# TNF-α = experiment: LPS-stimulated hPBMC cytokine production: TNF-α; type: cell-based; conditions: Homo sapiens; LPS 1 ng/ml, 18 hours
# Procedure: as §1, §2, §3, §4
# IL-6 = experiment: LPS-stimulated hPBMC cytokine production: IL-6; type: cell-based; conditions: Homo sapiens; LPS 1 ng/ml, 18 hours
# Procedure: as §1, §2, §3, §4
# MIP-1α = experiment: LPS-stimulated hPBMC cytokine production: MIP-1α; type: cell-based; conditions: Homo sapiens
# Procedure: as §1, §2, §3, §4
# RANTES = experiment: LPS-stimulated hPBMC cytokine production: RANTES enhancement; type: cell-based, human; conditions: at 0.1 μM
# Procedure: as §1, §2, §3, §4
# NK cell IFN-γ production = experiment: NK IgG-induced interferon-gamma (IFN-gamma) assay; type: cell-based; conditions: Homo sapiens, 48 h
# Procedure: NK cells from healthy donors were isolated from buffy coat blood by negative selection using the RosetteSep NK cell enrichment cocktail (Stem Cell Technologies, Vancouver, BC) prior to Ficoll-Hypaque (Fisher Scientific Co LLC, PA) density gradient centrifugation following the manufacturers' instructions. CD56+NK cells were isolated to ˜85% purity, as determined by flow cytometry (BD Biosciences, CA).
# Ninety-six-well flat-bottom plates were coated with 100 μg/mL of human IgG (Sigma) overnight at 4° C. The next day, unbound IgG was washed away with cold 1×PBS. NK cells were then plated in the IgG-coated 96-well plates at 2×10^5 cells per well in 180 μL RPMI-1640 Media and 10 ng/mL of rhIL-2 (R & D Systems, MN) was added. Test compounds were added in a volume of […]. Final concentrations of test compounds were 0.0001, 0.001, 0.01, 0.1, 1, or 10 μM. Final DMSO concentrations were 0.25%. After 48 hours, the supernatants were harvested and analyzed by ELISA for IFN-γ production.
# Data used to determine the ability of test compounds to enhance NK cell IFN-γ production in response to immobilized IgG and rhIL-2 stimulation was analyzed for each donor using GraphPad Prism v5.0 software.
# MDC = experiment: LPS-stimulated hPBMC cytokine production: MDC; type: cell-based; conditions: Homo sapiens; LPS 1 ng/ml, 18 hours
# Procedure: as §1, §2, §3, §4
# [1] = LPS 1 ng/ml, 18 hours, read-out: GM-CSF IC50
# [2] = LPS 1 ng/ml, 18 hours, read-out: MIP-1α IC50
SMILES,"IC50 (GM-CSF; 18 h, read-out: GM-CSF IC50 (μM))",IC50 (MIP-1β),IC50 (TNF-α),IC50 (IL-6),"IC50 (MIP-1α; 18 h, read-out: MIP-1α IC50 (μM))",RANTES Mean % of Control (RANTES),EC50 (NK cell IFN-γ production),IC50 (MDC),IC50 (GM-CSF; [1]),IC50 (MIP-1α; [2])
"O=C1CCC(N2Cc3c(OCc4ccc(CN5CCOCC5)cc4)cccc3C2=O)C(=O)N1 (racemic) [Racemate, 3-[4-(4-morphlin-4-ylmethylbenzyloxy)-1-oxo-1,3-dihydro-isoindo-2-yl]piperidine-2,6-dione]",0.0092 µM,> 10000 nM,1.8 nM,10 nM,0.19 µM,153 % of control,37 nM,2.6 nM,,
"O=C1CC[C@@H](N2Cc3c(OCc4ccc(CN5CCOCC5)cc4)cccc3C2=O)C(=O)N1 [R-enantiomer, (R)-3-[4-(4-morphlin-4-ylmethylbenzyloxy)-1-oxo-1,3-dihydro-isoindo-2-yl]piperidine-2,6-dione]",,> 10000 nM,9.5 nM,83 nM,,151 % of control,16 nM,12 nM,0.039 µM,0.45 µM
"O=C1CC[C@H](N2Cc3c(OCc4ccc(CN5CCOCC5)cc4)cccc3C2=O)C(=O)N1 [Test compound, (S)-3-[4-(4-morphlin-4-ylmethylbenzyloxy)-1-oxo-1,3-dihydro-isoindo-2-yl]piperidine-2,6-dione]",,> 10000 nM,0.59 nM,3.8 nM,,153 % of control,12 nM,2.1 nM,0.0022 µM,0.028 µM
